Laboratory results taken from the NIST ThermoML archive (doi:10.1021/je900550v).
± gives the expanded uncertainty stated by the source.

Details: 101.33 kPa, Liquid; for speed of sound: Pulse-echo method; for mass density: Vibrating tube method

C[NH2+]CCO.O=C[O-] [2-hydroxy-N-methylethanaminium formate]
Details | mass density [kg/m3] | speed of sound [m/s] | viscosity [mPa·s]
278.15 K | 1139.41 ± 2.3 | 1854.7 ± 2.2 | –
278.4 K | 1139.26 ± 2.3 | 1854.2 ± 2.2 | –
278.65 K | 1139.13 ± 2.3 | 1853.7 ± 2.2 | –
278.9 K | 1138.99 ± 2.3 | 1853.2 ± 2.2 | –
279.15 K | 1138.85 ± 2.3 | 1852.7 ± 2.2 | –
279.4 K | 1138.71 ± 2.3 | 1852.2 ± 2.2 | –
279.65 K | 1138.58 ± 2.3 | 1851.7 ± 2.2 | –
279.9 K | 1138.44 ± 2.3 | 1851.2 ± 2.2 | –
280.15 K | 1138.3 ± 2.3 | 1850.7 ± 2.2 | –
280.4 K | 1138.16 ± 2.3 | 1850.2 ± 2.2 | –
280.65 K | 1138.02 ± 2.3 | 1849.7 ± 2.2 | –
280.9 K | 1137.88 ± 2.2 | 1849.2 ± 2.2 | –
281.15 K | 1137.73 ± 2.2 | 1848.7 ± 2.2 | –
281.4 K | 1137.6 ± 2.2 | 1848.2 ± 2.2 | –
281.65 K | 1137.46 ± 2.2 | 1847.7 ± 2.2 | –
281.9 K | 1137.32 ± 2.2 | 1847.2 ± 2.2 | –
282.15 K | 1137.18 ± 2.2 | 1846.8 ± 2.2 | –
282.4 K | 1137.04 ± 2.2 | 1846.3 ± 2.2 | –
282.65 K | 1136.9 ± 2.2 | 1845.8 ± 2.2 | –
282.9 K | 1136.77 ± 2.2 | 1845.3 ± 2.2 | –
283.15 K | 1136.62 ± 2.2 | 1844.8 ± 2.2 | –
283.4 K | 1136.49 ± 2.2 | 1844.3 ± 2.2 | –
283.65 K | 1136.35 ± 2.2 | 1843.8 ± 2.2 | –
283.9 K | 1136.21 ± 2.2 | 1843.3 ± 2.2 | –
284.15 K | 1136.07 ± 2.2 | 1842.8 ± 2.2 | –
284.4 K | 1135.93 ± 2.2 | 1842.3 ± 2.2 | –
284.65 K | 1135.79 ± 2.2 | 1841.8 ± 2.2 | –
284.9 K | 1135.65 ± 2.2 | 1841.3 ± 2.2 | –
285.15 K | 1135.51 ± 2.2 | 1840.8 ± 2.2 | –
285.4 K | 1135.37 ± 2.2 | 1840.3 ± 2.2 | –
285.65 K | 1135.23 ± 2.2 | 1839.8 ± 2.2 | –
285.9 K | 1135.09 ± 2.2 | 1839.3 ± 2.2 | –
286.15 K | 1134.95 ± 2.2 | 1838.9 ± 2.2 | –
286.4 K | 1134.81 ± 2.2 | 1838.4 ± 2.2 | –
286.65 K | 1134.67 ± 2.2 | 1837.9 ± 2.2 | –
286.9 K | 1134.53 ± 2.2 | 1837.4 ± 2.2 | –
287.15 K | 1134.39 ± 2.2 | 1836.9 ± 2.2 | –
287.4 K | 1134.25 ± 2.2 | 1836.4 ± 2.2 | –
287.65 K | 1134.11 ± 2.2 | 1835.9 ± 2.2 | –
287.9 K | 1133.97 ± 2.2 | 1835.4 ± 2.2 | –
288.15 K | 1133.84 ± 2.2 | 1834.9 ± 2.2 | 34.2
288.4 K | 1133.69 ± 2.2 | 1834.4 ± 2.2 | –
288.65 K | 1133.55 ± 2.2 | 1833.9 ± 2.2 | –
288.9 K | 1133.41 ± 2.2 | 1833.4 ± 2.2 | –
289.15 K | 1133.28 ± 2.2 | 1833 ± 2.2 | –
289.4 K | 1133.13 ± 2.2 | 1832.5 ± 2.2 | –
289.65 K | 1133 ± 2.2 | 1832 ± 2.2 | –
289.9 K | 1132.86 ± 2.2 | 1831.5 ± 2.2 | –
290.15 K | 1132.72 ± 2.2 | 1831 ± 2.2 | –
290.4 K | 1132.58 ± 2.2 | 1830.5 ± 2.2 | –
290.65 K | 1132.44 ± 2.2 | 1830 ± 2.2 | 30.15
290.9 K | 1132.3 ± 2.2 | 1829.5 ± 2.2 | –
291.15 K | 1132.16 ± 2.2 | 1829 ± 2.2 | –
291.4 K | 1132.01 ± 2.2 | 1828.5 ± 2.2 | –
291.65 K | 1131.88 ± 2.2 | 1828 ± 2.2 | –
291.9 K | 1131.74 ± 2.2 | 1827.5 ± 2.2 | –
292.15 K | 1131.6 ± 2.2 | 1827 ± 2.2 | –
292.4 K | 1131.46 ± 2.2 | 1826.6 ± 2.2 | –
292.65 K | 1131.32 ± 2.2 | 1826.1 ± 2.2 | –
292.9 K | 1131.18 ± 2.2 | 1825.6 ± 2.2 | –
293.15 K | 1131.04 ± 2.2 | 1825.1 ± 2.2 | 26.05
293.4 K | 1130.9 ± 2.2 | 1824.6 ± 2.2 | –
293.65 K | 1130.76 ± 2.2 | 1824.1 ± 2.2 | –
293.9 K | 1130.62 ± 2.2 | 1823.6 ± 2.2 | –
294.15 K | 1130.48 ± 2.2 | 1823.2 ± 2.2 | –
294.4 K | 1130.34 ± 2.2 | 1822.7 ± 2.2 | –
294.65 K | 1130.2 ± 2.2 | 1822.2 ± 2.2 | –
294.9 K | 1130.06 ± 2.2 | 1821.7 ± 2.2 | –
295.15 K | 1129.92 ± 2.2 | 1821.2 ± 2.2 | –
295.4 K | 1129.78 ± 2.2 | 1820.7 ± 2.2 | –
295.65 K | 1129.64 ± 2.2 | 1820.2 ± 2.2 | 23.22
295.9 K | 1129.5 ± 2.2 | 1819.7 ± 2.2 | –
296.15 K | 1129.37 ± 2.2 | 1819.2 ± 2.2 | –
296.4 K | 1129.23 ± 2.2 | 1818.7 ± 2.2 | –
296.65 K | 1129.08 ± 2.2 | 1818.2 ± 2.2 | –
296.9 K | 1128.94 ± 2.2 | 1817.7 ± 2.2 | –
297.15 K | 1128.8 ± 2.2 | 1817.3 ± 2.2 | –
297.4 K | 1128.66 ± 2.2 | 1816.8 ± 2.2 | –
297.65 K | 1128.52 ± 2.2 | 1816.3 ± 2.2 | –
297.9 K | 1128.38 ± 2.2 | 1815.8 ± 2.2 | –
298.15 K | 1128.25 ± 2.2 | 1815.3 ± 2.2 | 20.27
298.4 K | 1128.11 ± 2.2 | 1814.8 ± 2.2 | –
298.65 K | 1127.96 ± 2.2 | 1814.3 ± 2.2 | –
298.9 K | 1127.83 ± 2.2 | 1813.8 ± 2.2 | –
299.15 K | 1127.69 ± 2.2 | 1813.4 ± 2.2 | –
299.4 K | 1127.55 ± 2.2 | 1812.9 ± 2.2 | –
299.65 K | 1127.41 ± 2.2 | 1812.4 ± 2.2 | –
299.9 K | 1127.27 ± 2.2 | 1811.9 ± 2.2 | –
300.15 K | 1127.13 ± 2.2 | 1811.4 ± 2.2 | –
300.4 K | 1126.99 ± 2.2 | 1810.9 ± 2.2 | –
300.65 K | 1126.85 ± 2.2 | 1810.4 ± 2.2 | 18.37
300.9 K | 1126.71 ± 2.2 | 1809.9 ± 2.2 | –
301.15 K | 1126.57 ± 2.2 | 1809.5 ± 2.2 | –
301.4 K | 1126.43 ± 2.2 | 1809 ± 2.2 | –
301.65 K | 1126.29 ± 2.2 | 1808.5 ± 2.2 | –
301.9 K | 1126.15 ± 2.2 | 1808 ± 2.2 | –
302.15 K | 1126.02 ± 2.2 | 1807.5 ± 2.2 | –
302.4 K | 1125.87 ± 2.2 | 1807 ± 2.2 | –
302.65 K | 1125.73 ± 2.2 | 1806.5 ± 2.2 | –
302.9 K | 1125.59 ± 2.2 | 1806 ± 2.2 | –
303.15 K | 1125.45 ± 2.2 | 1805.6 ± 2.2 | 16.4
303.4 K | 1125.32 ± 2.2 | 1805.1 ± 2.2 | –
303.65 K | 1125.18 ± 2.2 | 1804.6 ± 2.2 | –
303.9 K | 1125.04 ± 2.2 | 1804.1 ± 2.2 | –
304.15 K | 1124.89 ± 2.2 | 1803.6 ± 2.2 | –
304.4 K | 1124.76 ± 2.2 | 1803.2 ± 2.2 | –
304.65 K | 1124.62 ± 2.2 | 1802.7 ± 2.2 | –
304.91 K | 1124.48 ± 2.2 | 1802.2 ± 2.2 | –
305.15 K | 1124.34 ± 2.2 | 1801.7 ± 2.2 | 15.1
305.4 K | 1124.2 ± 2.2 | 1801.2 ± 2.2 | –
305.65 K | 1124.06 ± 2.2 | 1800.7 ± 2.2 | –
305.9 K | 1123.92 ± 2.2 | 1800.2 ± 2.2 | –
306.15 K | 1123.78 ± 2.2 | 1799.7 ± 2.2 | –
306.4 K | 1123.64 ± 2.2 | 1799.3 ± 2.2 | –
306.65 K | 1123.5 ± 2.2 | 1798.8 ± 2.2 | –
306.9 K | 1123.36 ± 2.2 | 1798.3 ± 2.2 | –
307.15 K | 1123.22 ± 2.2 | 1797.8 ± 2.2 | –
307.4 K | 1123.08 ± 2.2 | 1797.3 ± 2.2 | –
307.65 K | 1122.94 ± 2.2 | 1796.8 ± 2.2 | –
307.9 K | 1122.8 ± 2.2 | 1796.3 ± 2.2 | –
